Measurements as given in patent publication US20240315237A1, “METHODS FOR SINGLE CELL ANALYSIS OF GLUCOSE INTERNALIZATION” (ABBOTT DIABETES CARE INC., priority 2023, published 2024).
“And” between values parts separate entries of the source, which are not always exact repeats. Equal values may be shown once. “Also recorded” adds a separate entry of the source.

Experiments:
Type in all cases: cell-based
GLUT1 [1] = target: T1, GLUT1 (Homo sapiens, UniProt P11166); test: glucose competition study with unlabeled D-glucose (flow cytometry); details: 20 μM tracer; for mean intensity maintained, % of the mean intensity of the control sample: 100 mM unlabeled D-glucose (5000× tracer), 60 min, 37° C., human RBCs
T1 construct: Adult human RBCs exclusively express the glucose transporter 1 (GLUT1) encoded by the SLC2A1 gene; endogenous in cells; host or cells: human erythrocytes (RBCs) isolated from blood
T1 sequence (P11166 1-492): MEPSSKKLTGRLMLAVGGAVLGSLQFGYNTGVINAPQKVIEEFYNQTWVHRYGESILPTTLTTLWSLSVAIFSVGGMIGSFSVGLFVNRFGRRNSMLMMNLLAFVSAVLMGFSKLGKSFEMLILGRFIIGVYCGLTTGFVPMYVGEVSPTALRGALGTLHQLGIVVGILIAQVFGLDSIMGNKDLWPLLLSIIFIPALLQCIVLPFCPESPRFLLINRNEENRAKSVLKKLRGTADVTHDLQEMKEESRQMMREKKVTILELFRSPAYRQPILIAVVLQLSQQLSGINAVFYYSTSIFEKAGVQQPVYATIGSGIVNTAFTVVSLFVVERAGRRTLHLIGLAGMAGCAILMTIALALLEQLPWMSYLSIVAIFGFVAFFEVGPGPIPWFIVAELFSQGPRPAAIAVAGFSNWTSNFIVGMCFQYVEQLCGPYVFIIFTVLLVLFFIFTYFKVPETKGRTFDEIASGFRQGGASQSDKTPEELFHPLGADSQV
Procedure: (§1) To test the tracer specificity, a competition experiment was first performed on the flow cytometer under identical settings as were used in the membrane integrity experiments above. Aliquots of solutions of RBCs containing KCl solution and 20 μM of a given glucose tracer were incubated for 60 minutes at 37° C. shaker at 400 RPM containing a selected concentration of unlabeled D-glucose (i.e., 0.00, 0.01, 0.50, 1.00, 5.00, 25.00, 50.00 or 100.00 mM). After incubation, cells were washed one time in 125 KCl solution containing the selected concentration of D-glucose and promptly measured on the flow cytometer using the conditions described above. Next, GLUT1-specific transport was further tested by preparing washed RBC solutions as described above and then incubating the RBC solutions with one of the GLUT1 inhibitors on a 37° C. shaker at 400 RPM for one hour of incubation. […] Samples were then spun down, and supernatant was removed and fresh inhibitor/KCl solution was added and inverted. Glucose tracers were then added at working concentrations of 20 μM and incubated for 30 minutes on a 37° C. shaker at 400 RPM. After 30 minutes, cells were quickly spun down again using the protocol described in herein and supernatant was removed and replaced with fresh inhibitor/KCl solution before immediately being placed on the flow cytometer. Each sample was run on the flow cytometer using identical settings described above.

GLUT1 [2] = target: T1, GLUT1; test: small molecule GLUT1 inhibition study of tracer uptake (flow cytometry)
Procedure: as §1, with “Each sample was run on the flow cytometer using identical settings described above.” left out

human erythrocytes = test: single cell 2-NBDG uptake in anchored RBCs (microfluidic perfusion, confocal microscopy)
Procedure: Sample preparation. Human whole blood from an individual donor was drawn into sodium heparin (NaHep) and shipped cold. Samples were received directly from BioIVT LLC and placed into 4° C. refrigeration until prepared for experimentation. Samples removed from refrigeration for experimentation purposes were first inverted for three minutes and then 200 μL were drawn from the collection tubes and placed into a fresh 1.5 mL centrifuge tube containing 1 mL of 125 mM KCl solution. Samples were gently inverted 5-10× and then placed in a 4° C. centrifuge and spun using a modified RBC isolation protocol aimed at reducing clotting of whole blood and deformation of RBCs (Hanson et al., American Journal of Physiology Heart and Circulatory Physiology, 2008. 295(2): p. H786-H793). Centrifugation-based separation of RBCs was performed at 2000 RPM (490×g) for 5 minutes. After centrifugation, supernatant was removed along with buffy coat (white blood cells, etc.) using a pipette and a fresh 1 mL of KCl solution was then added. This process was repeated 3× to isolate RBCs and diminish intracellular glucose.
Samples were then vortexed gently and placed on a 37° C. shaker at 400 RPM for one hour for incubation. Due to the high expression of glycophorin A+B in erythrocytes, it was a simple membrane target for antibody anchoring of cells to the microfluidic imaging surface using the biotin binding Neutravidin™ system.
Microfluidic Perfusion. An ONIX microfluidic perfusion system from CellAsic (Millipore Sigma) was used for flow-based experiments. The system comprises a perfusion pump system, which connects to a PC for multidimensional control of flow rates (converted from applied kPa, i.e., 27.6 kPA=20 μL/hr) and duration. The plates used for experiments herein are model Y04C. This plate system has a #1.5 glass bottom for imaging and contains four separate channels which have an observation region where fluid switching can occur homogenously. Plates were removed from vacuum packaging the day of experimentation and storage PBS was removed using a vacuum system. Each well was then filled with 400 μL of KCl solution and placed on the perfusion system. KCl solution was flowed through each channel and well (except for the waste well #7) at 20 μL/hr for 20 minutes to flush out any storage PBS. Next, one of the wells (#1 for each channel) was filled with 100 μL 0.1 mg/mL Pierce™ biotinylated-bovine serum albumin (B-BSA, Cat #29130, Thermo Scientific) in 125 mM KCl solution and this was then flowed through for 15 minutes total, then allowed to incubate for 15 minutes at room temperature. After the B-BSA was deposited on the glass surface of the channels, a 0.1 mg/mL solution of Neutravidin (Cat #31000, Thermo Scientific) in KCl solution was flowed for 15 minutes at room temperature to build a surface anchoring system for red blood cells.
For uptake measurements, cells incubated with biotinylated-α-glycophorin A+B antibodies were diluted 1:1 in KCl solution within well #8 and perfused using 20 μL/hr in combination with well #5 containing KCl solution only at 20 μL/hr for 10 seconds. Flowed cells were then allowed to incubate with the cell anchoring system described above for three minutes. […] Immediately after this time point, well #2 was stopped, and KCl solution only from well #5 was perfused at 20 μL/hr to wash away tracer (“washout”).
For uptake measurements, the 488 nm laser was configured for excitation to a power level of 0.07% of total laser voltage (i.e., 3.5 μW before the objective) with a pixel dwell time of 0.24 μs. For detection, the detector bandwidth was set to admit wavelengths 520 nm to 560 nm with a master gain of 500 V and digital gain set to 1×. The field of view was 1944 pixels×1944 pixels (or 192.8 μm×192.8 μm) which led to a total frame time of 989.11 ms for a single acquisition. With these settings and using the 40× magnification, the pixel size was ˜0.1 μm×˜0.1 μm.

[3] = 5 mM 2-NBDG, all cells, height corrected, FIG. 16B
[4] = normalized to the all donor mean, N=45, FIG. 18

Molecule	mean intensity maintained, % of the mean intensity of the control sample (GLUT1 [1]) [%]	competition with unlabeled D-glucose among three tracers (GLUT1 [1]; 0.00-100.00 mM D-glucose, FIG. 9C)	inhibition of tracer uptake by GLUT1 inhibitors, compared with other tracers (GLUT1 [2]; Phloretin, Cytochalasin B, WZB117, STF-31, BAY-876, 20 μM tracer, FIG. 1B)	specificity for the GLUT1 transporter (GLUT1 [2]; human RBCs, inhibitor panel and glucose competition experiments)	time to saturation point of intracellular 2-NBDG intensity (human erythrocytes; 5 mM 2-NBDG, 20 μL/hr, FIG. 11B)	mean intracellular glucose fraction, typical patient with higher fraction (human erythrocytes; 5 mM 2-NBDG, 1802 cells, cell heights ≥2.1 μm, mean±1 SD, FIG. 14B)	mean intracellular glucose fraction, typical patient with lower fraction (human erythrocytes; 5 mM 2-NBDG, 2343 cells, cell heights ≥2.1 μm, mean±1 SD, FIG. 14A)	mean intracellular percentage for this patient blood sample (human erythrocytes; 5 mM 2-NBDG, FIG. 11C) [%]	intracellular glucose percentage, Black patients (human erythrocytes; 5 mM 2-NBDG, FIG. 16A, n=20, mean±1 SD)	intracellular glucose percentage, Caucasian/Hispanic patients (human erythrocytes; 5 mM 2-NBDG, FIG. 16A, n=25, mean±1 SD)	mean (+/−SD) uptake normalized to overall mean, Black ancestry (human erythrocytes; 5 mM 2-NBDG, FIG. 17) [%+/−39%]	mean (+/−SD) uptake normalized to overall mean, White ancestry (human erythrocytes; 5 mM 2-NBDG, FIG. 17) [%+/−36%]	corrected intracellular glucose percentage (HCIG), Black patients (human erythrocytes; [3])	corrected intracellular glucose percentage (HCIG), Caucasian/Hispanic patients (human erythrocytes; [3])	stability of saturating intracellular level (plateau) (human erythrocytes; extended duration measurements, FIGS. 13A-13B)	mean normalized intracellular glucose, Black sub-group (human erythrocytes; [4])	mean normalized intracellular glucose, Hispanic/Caucasian sub-group (human erythrocytes; [4])
D-Glucose-Silicon rhodamine [D-glucose-SIR]	41.9	–	–	–	–	–	–	–	–	–	–	–	–	–	–	–	–
6-deoxy-2-[(7-nitro-2,1,3-benzoxadiazol-4-yl)amino]-D-glucose [6-NBDG]	13.8	–	–	–	–	–	–	–	–	–	–	–	–	–	–	–	–
O=C[C@H](Nc1ccc([N+](=O)[O-])c2nonc12)[C@@H](O)[C@H](O)[C@H](O)CO [2-NBDG, 2-deoxy-2-[(7-nitro-2,1,3-benzoxadiazol-4-yl)amino]-D-glucose]	1.4	highest competition	most inhibition; also recorded: consistently the most inhibited	highest specificity; also recorded: GLUT1 specific	within several seconds	6.7% and 6.7%±2.3%	4.6% and 4.6%±1.6%	4.9	0.057±0.018	0.044±0.018	118	86	0.060±0.020	0.044±0.018	stable for several hours	1.18	0.86
